Patent EP4603105A1, “PHARMACEUTICAL COMPOSITION CONTAINING CYCLIC COMPOUND HAVING SELECTIVE KRAS INHIBITORY EFFECT AGAINST HRAS AND NRAS” (CHUGAI SEIYAKU KABUSHIKI KAISHA, priority 2022, dated 2024)

How the values were obtained:
HRAS wild-type protein = HRAS wild-type protein (Homo sapiens, UniProt P01112); test: Binding to HRAS by surface plasmon resonance (SPR), KD and KD ratio to KRAS
How it was run: (§1)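 Recombinant RAS proteins bearing a biotinylated Avi tag and loaded with GDP served as the captured ligand, recaptured fresh every cycle. Binding responses were referenced to an uncoated surface and a buffer-only blank cycle. Dissociation constants were obtained by 1:1 model fitting at 30°C.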

[1] = system: human lung cancer strain NCI-H441; format: cell-based
How it was run: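 Signal came from […] measured per well once the reagent was added. Beforehand, cells were cultured at 37°C and 5% carbon dioxide on a compound series serially diluted in dimethyl sulfoxide.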

[2] = molecular target: GDP-bound NRAS wild-type protein (Homo sapiens, UniProt P01111); test: Binding to NRAS by surface plasmon resonance (SPR), KD and KD ratio to KRAS
How it was run: as §1

[3] = ratio of KD for HRAS wild-type protein to KD for KRAS
[4] = ratio of KD for GDP-bound NRAS wild-type protein to KD for KRAS
[5] = ratio of KD value for HRAS wild-type protein to KD value for KRAS (SPR)
[6] = ratio of KD value for GDP-bound NRAS wild-type protein to KD value for KRAS (SPR)

Chain of GDP-bound NRAS wild-type protein (P01111 whole entry): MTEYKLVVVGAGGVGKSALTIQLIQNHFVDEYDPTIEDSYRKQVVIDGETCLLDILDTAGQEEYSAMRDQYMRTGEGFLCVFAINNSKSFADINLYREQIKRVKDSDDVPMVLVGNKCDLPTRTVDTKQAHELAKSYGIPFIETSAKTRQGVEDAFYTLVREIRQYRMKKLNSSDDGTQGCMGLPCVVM
Chain of HRAS wild-type protein (P01112 whole entry): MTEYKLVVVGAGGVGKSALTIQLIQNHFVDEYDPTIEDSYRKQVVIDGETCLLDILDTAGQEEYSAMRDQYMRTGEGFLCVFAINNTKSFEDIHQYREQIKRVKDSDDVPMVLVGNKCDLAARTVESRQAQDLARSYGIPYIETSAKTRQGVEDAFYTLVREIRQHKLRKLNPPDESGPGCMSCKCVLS

Structure (SMILES): CCO[C@@H]1C[C@H]2C(=O)NC3(CC(C)(C)C3)C(=O)N(C)[C@@H](C3CCCC3)C(=O)N(C)[C@H](C(=O)N(C)CC)CC(=O)N(C)[C@@H](CC(C)C)C(=O)N[C@@H]([C@@H](C)CC)C(=O)N(C)CC(=O)N(C)[C@H]3C/C=C\CCN(C3=O)[C@@H](Cc3ccc(C(F)F)cc3)C(=O)N(C)CC(=O)N[C@@H](CCc3ccc(Cl)c(Cl)c3)C(=O)N2C1 [PP2827]
- HRAS /KRAS (HRAS wild-type protein; [3]): B (a compound having 3 or more and less than 10 is denoted as B)
- IC50 [1]: 21 nM
- NRAS /KRAS [2, 4]: A (a compound having 10 or more and less than 20 is denoted as A)

Structure (SMILES): CCO[C@@H]1C[C@H]2C(=O)N(C)C3(CCC3)C(=O)N(C)[C@@H](C3CCCC3)C(=O)N(C)[C@H](C(=O)N(C)C)CC(=O)N(C)[C@@H](CC)C(=O)N[C@@H]([C@@H](C)CC)C(=O)N3CCC[C@H]3C(=O)N(C)[C@H]3C/C=C\CCN(C3=O)[C@@H](Cc3ccc(C)cc3)C(=O)N(C)CC(=O)N[C@@H](CCc3cc(F)c(C(F)(F)F)c(F)c3)C(=O)N2C1 [PP1785]
- HRAS /KRAS (HRAS wild-type protein; [5]): A (a compound having 10 or more and less than 20 is denoted as A)
- IC50 [1]: 6.9 nM
- NRAS /KRAS [2, 6]: A (a compound having 10 or more and less than 20 is denoted as A)

Structure (SMILES): CCC[C@H]1C(=O)N[C@@H]([C@@H](C)CC)C(=O)N2CCC[C@H]2C(=O)N(C)[C@H]2C/C=C\CCN(C2=O)[C@@H](Cc2ccc(C(F)(F)F)cc2)C(=O)N(C)CC(=O)N[C@@H](CCc2cc(F)c(C(F)(F)F)c(F)c2)C(=O)N2C[C@H](OCC)C[C@H]2C(=O)N(C)C2(CCC2)C(=O)N(C)[C@@H](C2CCCC2)C(=O)N(C)[C@H](C(=O)N2CCCCC2)CC(=O)N1C [PP3114]
- HRAS /KRAS (HRAS wild-type protein; [3]): A (a compound having 10 or more and less than 20 is denoted as A)
- IC50 [1]: 14.7 nM
- NRAS /KRAS [2, 4]: AA (a compound having 20 or more is denoted as AA)

Structure (SMILES): CCO[C@@H]1C[C@H]2C(=O)NC3(CC(C)(C)C3)C(=O)N(C)[C@@H](C3CCCC3)C(=O)N(CC)[C@H](C(=O)N(C)C)CC(=O)N(C)[C@@H](CC(C)C)C(=O)N[C@@H]([C@@H](C)CC)C(=O)NCC(=O)N(C)[C@H]3C/C=C\CCN(C3=O)[C@@H](Cc3ccc(C(F)(F)F)cc3)C(=O)N(C)CC(=O)N[C@@H](CCc3cc(F)c(C(F)(F)F)c(F)c3)C(=O)N2C1 [PP1773]
- HRAS /KRAS (HRAS wild-type protein; [5]): A (a compound having 10 or more and less than 20 is denoted as A)
- IC50 [1]: 39.9 nM
- NRAS /KRAS [2, 6]: A (a compound having 10 or more and less than 20 is denoted as A)

Structure (SMILES): CCCO[C@@H]1C[C@H]2C(=O)NC3(CC(C)(C)C3)C(=O)N(C)[C@@H](C3CCCC3)C(=O)N(C)[C@H](C(=O)N3CCCCC3)CC(=O)N(C)[C@H]3CCCc4ccc(cc4)C[C@@H](C(=O)N(C)CC(=O)N[C@@H](CCc4ccc(C(F)(F)F)c(OC)c4)C(=O)N2C1)N1CC/C=C\C[C@@H](C1=O)N(C)C(=O)CN(C)C(=O)[C@H]([C@@H](C)CC)NC3=O [PP3064]
- HRAS /KRAS (HRAS wild-type protein; [3]): B (a compound having 3 or more and less than 10 is denoted as B)
- IC50 [1]: 26.9 nM
- NRAS /KRAS [2, 4]: B (a compound having 3 or more and less than 10 is denoted as B)

Structure (SMILES): CCO[C@@H]1C[C@H]2C(=O)NC3(CC(C)(C)C3)C(=O)N(C)[C@@H](C(CC)CC)C(=O)N(C)[C@H](C(=O)N(C)C)CC(=O)N(C)[C@@H](CC)C(=O)N[C@@H]([C@@H](C)CC)C(=O)N(C)CC(=O)N(C)[C@H]3C/C=C\CCN(C3=O)[C@@H](Cc3ccc(C)cc3)C(=O)N(C)CC(=O)N[C@@H](CCc3ccc(Cl)c(Cl)c3)C(=O)N2C1 [PP2188]
- HRAS /KRAS (HRAS wild-type protein; ratio of the KD value with respect to HRAS wild-type protein to the KD value with respect to KRAS): A (a compound having 10 or more and less than 20 is denoted as A)
- IC50 [1]: 26.7 nM
- NRAS /KRAS ([2]; ratio of the KD value with respect to GDP-bound NRAS wild-type protein to the KD value with respect to KRAS): AA (a compound having 20 or more is denoted as AA)

Structure (SMILES): CCC[C@H]1C(=O)N[C@@H]([C@@H](C)CC)C(=O)N(C)CC(=O)N(C)[C@H]2C/C=C\CCN(C2=O)[C@@H](Cc2ccc(C(F)(F)F)cc2)C(=O)N(C)CC(=O)N[C@@H](CCc2cc(F)c(C(F)(F)F)c(F)c2)C(=O)N2C[C@H](F)C[C@H]2C(=O)NC2(CC(C)(C)C2)C(=O)N(C)[C@@H](C2CCCC2)C(=O)N(C)[C@H](C(=O)N(C)C)CC(=O)N1C [PP1689]
- HRAS /KRAS (HRAS wild-type protein; [5]): B (a compound having 3 or more and less than 10 is denoted as B)
- IC50 [1]: 1.4 nM
- NRAS /KRAS [2, 6]: A (a compound having 10 or more and less than 20 is denoted as A)

Structure (SMILES): CCO[C@@H]1C[C@H]2C(=O)NC3(CC(C)(C)C3)C(=O)N(C)[C@@H](C3CCCC3)C(=O)N(C)[C@H](C(=O)N3CCCC3)CC(=O)N(C)[C@H]3CCCCCc4ccc(cc4)C[C@@H](C(=O)N(C)CC(=O)N[C@@H](CCc4ccc(C(F)(F)F)c(OC)c4)C(=O)N2C1)N1CC/C=C\C[C@@H](C1=O)N(C)C(=O)CN(C)C(=O)[C@H]([C@@H](C)CC)NC3=O [PP3037]
- HRAS /KRAS (HRAS wild-type protein; [3]): B (a compound having 3 or more and less than 10 is denoted as B)
- IC50 [1]: 3.4 nM
- NRAS /KRAS [2, 4]: A (a compound having 10 or more and less than 20 is denoted as A)
